These results are taken from article PMC7138307 (PLoS ONE, 2020).

The structures appear in SMILES notation.

What all share (assay): Ex vivo KiNativ ATP/ADP probe competition in mouse cortical brain lysates
Holding throughout (format): binding

For one test, the target named is T1, PIP5K3 (Mus musculus, UniProt Q9Z1T6).
T1 construct: homogenized brain lysates were labeled with Desthiobiotin-ADP-acyl phosphate probe; from tissue; host or cells: mouse cortical brain lysate
To be noted: GGKSGAAFYATEDDRFILK, labeling site ATP.

The test system of a further test is TAO1, TAO3. To be noted: DIKAGNILLTEPGQVK, Lys2.
In a further test the target is T2, TAO2 (Mus musculus, UniProt Q6ZQ29).
T2 construct: from tissue; host or cells: mouse cortical brain lysate
T2 sequence (Q6ZQ29 1-1240): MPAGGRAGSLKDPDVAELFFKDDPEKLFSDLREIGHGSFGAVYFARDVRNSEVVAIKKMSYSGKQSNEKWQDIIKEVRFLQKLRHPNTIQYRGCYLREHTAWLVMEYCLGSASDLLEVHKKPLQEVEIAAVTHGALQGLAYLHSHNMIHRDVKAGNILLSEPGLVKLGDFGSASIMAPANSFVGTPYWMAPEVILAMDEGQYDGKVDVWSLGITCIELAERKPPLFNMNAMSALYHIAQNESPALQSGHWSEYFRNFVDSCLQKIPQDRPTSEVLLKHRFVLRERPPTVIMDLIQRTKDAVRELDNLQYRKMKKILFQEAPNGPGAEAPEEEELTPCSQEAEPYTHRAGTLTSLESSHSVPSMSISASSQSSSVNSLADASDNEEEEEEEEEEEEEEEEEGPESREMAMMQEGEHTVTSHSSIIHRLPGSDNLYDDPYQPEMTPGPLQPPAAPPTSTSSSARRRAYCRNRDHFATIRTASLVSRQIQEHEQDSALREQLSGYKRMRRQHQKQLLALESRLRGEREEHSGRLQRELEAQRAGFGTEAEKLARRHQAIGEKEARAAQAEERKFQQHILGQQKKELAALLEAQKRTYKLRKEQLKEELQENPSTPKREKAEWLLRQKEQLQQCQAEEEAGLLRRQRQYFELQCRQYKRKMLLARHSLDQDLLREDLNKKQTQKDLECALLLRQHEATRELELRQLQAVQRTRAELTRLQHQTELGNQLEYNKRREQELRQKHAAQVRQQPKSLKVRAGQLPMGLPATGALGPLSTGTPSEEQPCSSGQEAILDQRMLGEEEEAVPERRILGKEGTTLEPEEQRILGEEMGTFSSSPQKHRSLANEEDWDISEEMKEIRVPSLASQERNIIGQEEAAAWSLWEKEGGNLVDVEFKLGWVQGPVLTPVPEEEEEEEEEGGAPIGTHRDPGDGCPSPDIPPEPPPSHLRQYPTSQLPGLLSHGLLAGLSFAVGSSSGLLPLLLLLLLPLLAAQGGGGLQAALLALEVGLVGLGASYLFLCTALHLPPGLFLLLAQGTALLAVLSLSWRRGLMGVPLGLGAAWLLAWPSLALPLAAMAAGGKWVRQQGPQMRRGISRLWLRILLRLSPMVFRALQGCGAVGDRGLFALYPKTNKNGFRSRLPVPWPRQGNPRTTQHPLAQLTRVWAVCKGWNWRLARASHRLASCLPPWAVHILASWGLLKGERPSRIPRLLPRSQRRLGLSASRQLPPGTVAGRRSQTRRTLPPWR

T1 sequence (Q9Z1T6 whole entry): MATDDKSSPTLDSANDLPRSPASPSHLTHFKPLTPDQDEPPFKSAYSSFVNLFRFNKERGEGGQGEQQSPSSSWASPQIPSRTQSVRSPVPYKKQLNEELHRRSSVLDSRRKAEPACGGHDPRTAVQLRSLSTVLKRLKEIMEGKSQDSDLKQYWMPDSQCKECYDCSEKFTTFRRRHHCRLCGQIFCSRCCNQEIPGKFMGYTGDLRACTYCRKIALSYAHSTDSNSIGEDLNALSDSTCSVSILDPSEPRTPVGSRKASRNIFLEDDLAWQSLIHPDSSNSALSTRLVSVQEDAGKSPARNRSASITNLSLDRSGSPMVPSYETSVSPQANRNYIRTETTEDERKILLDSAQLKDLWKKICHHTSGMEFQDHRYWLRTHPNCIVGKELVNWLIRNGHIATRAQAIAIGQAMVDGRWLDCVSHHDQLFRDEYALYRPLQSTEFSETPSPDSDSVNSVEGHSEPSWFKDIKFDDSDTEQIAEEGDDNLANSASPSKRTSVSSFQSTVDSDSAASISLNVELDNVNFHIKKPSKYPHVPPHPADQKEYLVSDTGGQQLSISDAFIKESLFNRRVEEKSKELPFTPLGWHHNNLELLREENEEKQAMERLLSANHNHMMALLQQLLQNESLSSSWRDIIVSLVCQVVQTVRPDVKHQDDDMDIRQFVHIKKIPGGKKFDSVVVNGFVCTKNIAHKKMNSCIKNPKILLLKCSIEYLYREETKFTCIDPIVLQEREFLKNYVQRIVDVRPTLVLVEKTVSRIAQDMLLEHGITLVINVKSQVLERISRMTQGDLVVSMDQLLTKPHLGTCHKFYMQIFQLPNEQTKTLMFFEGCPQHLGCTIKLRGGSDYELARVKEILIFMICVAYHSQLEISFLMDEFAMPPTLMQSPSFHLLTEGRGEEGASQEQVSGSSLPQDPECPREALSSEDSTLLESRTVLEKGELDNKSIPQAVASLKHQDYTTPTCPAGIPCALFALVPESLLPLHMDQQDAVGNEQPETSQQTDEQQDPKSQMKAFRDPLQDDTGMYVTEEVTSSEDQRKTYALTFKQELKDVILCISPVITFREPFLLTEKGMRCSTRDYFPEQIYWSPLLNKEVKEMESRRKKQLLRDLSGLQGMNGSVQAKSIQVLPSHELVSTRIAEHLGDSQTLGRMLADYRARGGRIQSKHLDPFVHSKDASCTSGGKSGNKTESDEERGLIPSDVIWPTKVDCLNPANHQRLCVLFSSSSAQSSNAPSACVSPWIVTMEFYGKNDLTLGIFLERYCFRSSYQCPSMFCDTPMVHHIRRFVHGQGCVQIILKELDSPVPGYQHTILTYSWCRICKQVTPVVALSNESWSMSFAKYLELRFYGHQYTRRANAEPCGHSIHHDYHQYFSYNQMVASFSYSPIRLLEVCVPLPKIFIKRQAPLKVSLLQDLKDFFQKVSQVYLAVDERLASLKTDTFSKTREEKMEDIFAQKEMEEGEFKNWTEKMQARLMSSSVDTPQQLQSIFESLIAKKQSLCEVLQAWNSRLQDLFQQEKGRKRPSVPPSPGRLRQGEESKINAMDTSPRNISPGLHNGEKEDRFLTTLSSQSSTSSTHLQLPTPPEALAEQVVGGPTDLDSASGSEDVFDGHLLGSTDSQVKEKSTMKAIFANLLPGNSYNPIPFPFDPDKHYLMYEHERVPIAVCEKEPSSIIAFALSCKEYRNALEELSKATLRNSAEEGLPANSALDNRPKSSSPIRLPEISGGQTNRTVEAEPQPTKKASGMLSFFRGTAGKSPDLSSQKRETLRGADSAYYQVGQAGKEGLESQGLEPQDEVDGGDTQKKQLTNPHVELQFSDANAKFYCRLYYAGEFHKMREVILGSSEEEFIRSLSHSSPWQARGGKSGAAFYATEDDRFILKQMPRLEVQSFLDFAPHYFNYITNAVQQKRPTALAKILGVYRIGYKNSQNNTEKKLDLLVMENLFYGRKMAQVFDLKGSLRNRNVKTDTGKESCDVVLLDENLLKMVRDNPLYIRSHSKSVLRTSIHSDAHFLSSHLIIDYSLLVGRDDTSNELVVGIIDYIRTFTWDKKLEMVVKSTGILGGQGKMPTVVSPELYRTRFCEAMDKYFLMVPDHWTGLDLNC

In the case of `CCC(C)(O)C#Cc1cc2c(ccn2-c2ccnc(N)n2)cn1` (stereo not shown) [BIIB-TTBK1i], the “Percent Inhibition at 1μM” value worked out at 90.2% on PIP5K3 (ADP probe); 95.9% on PIP5K3 (ATP probe); 66.8% in the test on TAO1, TAO3 (ADP probe); 69.5% in the test with TAO1, TAO3 (ATP probe); 82.6% at TAO2 (DVKAGNILLSEPGLVK, Lys2, ADP probe); 93.2% at TAO2 (DVKAGNILLSEPGLVK, Lys2, ATP probe). Further, the “Percent Inhibition at 1μM” value at TAO2 (NSEVVAIKK, Lys1, ADP probe) was determined as 86.4%.
